Measured values: ChEMBL document CHEMBL3885861, “Open TG-GATES”

Species on record: Rattus norvegicus
Experiment: Open TG-GATES - Regimen: Single
Assay type: toxicity, organism-based, Sprague-Dawley
Parameters: regimen Single, gender Male, age 6 weeks
Conditions: in vivo, po, 150 mg/kg, route gavage, dose level High; for APTT / Bas / Eos / Fbg / Hb / Ht / Lym / MCH / MCHC / MCV / Mono / Neu / PT / Plat / RBC / Ret / WBC: tissue Blood; for KIDNEY_L / KIDNEY_R / KIDNEY_TOTAL: tissue Kidney; for LIVER: tissue Liver; for A/G / ALP / ALT / AST / BUN / CRE / Ca / Cl / DBIL / GLC / IP / K / LDH / Na / PL / RALB / TBIL / TC / TG / TP / gamma-GTP: tissue Plasma

CN(C)CCC=C1c2ccccc2CCc2ccccc21 [AMITRIPTYLINE]
TERMINAL_BW (3 h): 193.9 g | APTT (3 h): 15.9 s | Bas (3 h): 0.2% | Eos (3 h): 0.4% | Fbg (3 h): 285.6 mg/dL | Hb (3 h): 13.4 g/dL | Ht (3 h): 41.6% | Lym (3 h): 75% | MCH (3 h): 20.9 pg | MCHC (3 h): 32.1% | MCV (3 h): 65 fL | Mono (3 h): 3.2% | Neu (3 h): 20.4% | PT (3 h): 16 s | Plat (3 h): 120.6 x10_4/uL | RBC (3 h): 641.4 x10_4/ul | Ret (3 h): 9.3% | WBC (3 h): 71.3 x10_2/uL | KIDNEY_L (3 h): 0.9 g | KIDNEY_R (3 h): 0.9 g | KIDNEY_TOTAL (3 h): 1.7 g | LIVER (3 h): 8.5 g | A/G (3 h): 0.8 | ALP (3 h): 1527.2 IU/L | ALT (3 h): 53.2 IU/L | AST (3 h): 74.6 IU/L | BUN (3 h): 7.8 mg/dL | CRE (3 h): 0.2 mg/dL | Ca (3 h): 10.9 mg/dL | Cl (3 h): 107.4 meq/L | DBIL (3 h): 0.006 mg/dL | GLC (3 h): 188 mg/dL | IP (3 h): 9.9 mg/dL | K (3 h): 4.3 meq/L | LDH (3 h): 67.4 IU/L | Na (3 h): 145.6 meq/L | PL (3 h): 138.8 mg/dL | RALB (3 h): 2.5 g/dL | TBIL (3 h): 0.058 mg/dL | TC (3 h): 77 mg/dL | TG (3 h): 40.6 mg/dL | TP (3 h): 5.5 g/dL | gamma-GTP (3 h): 0.8 IU/L | TERMINAL_BW (6 h): 191.7 g | APTT (6 h): 16.4 s | Bas (6 h): 0% | Eos (6 h): 0.6% | Fbg (6 h): 273.8 mg/dL | Hb (6 h): 12.7 g/dL | Ht (6 h): 39.3% | Lym (6 h): 74% | MCH (6 h): 20.9 pg | MCHC (6 h): 32.3% | MCV (6 h): 64.6 fL | Mono (6 h): 3.2% | Neu (6 h): 21.2% | PT (6 h): 15.7 s | Plat (6 h): 123.7 x10_4/uL | RBC (6 h): 610.2 x10_4/ul | Ret (6 h): 9.3% | WBC (6 h): 89.4 x10_2/uL | KIDNEY_L (6 h): 0.8 g | KIDNEY_R (6 h): 0.8 g | KIDNEY_TOTAL (6 h): 1.6 g | LIVER (6 h): 7.8 g | A/G (6 h): 0.9 | ALP (6 h): 1508.6 IU/L | ALT (6 h): 50.4 IU/L | AST (6 h): 71 IU/L | BUN (6 h): 7.4 mg/dL | CRE (6 h): 0.1 mg/dL | Ca (6 h): 10.7 mg/dL | Cl (6 h): 108.2 meq/L | DBIL (6 h): 0.004 mg/dL | GLC (6 h): 179.6 mg/dL | IP (6 h): 9.9 mg/dL | K (6 h): 4.4 meq/L | LDH (6 h): 57.4 IU/L | Na (6 h): 143.4 meq/L | PL (6 h): 149.6 mg/dL | RALB (6 h): 2.5 g/dL | TBIL (6 h): 0.058 mg/dL | TC (6 h): 85.6 mg/dL | TG (6 h): 28.8 mg/dL | TP (6 h): 5.4 g/dL | gamma-GTP (6 h): 0.6 IU/L | TERMINAL_BW (9 h): 193.2 g | APTT (9 h): 15.6 s | Bas (9 h): 0% | Eos (9 h): 0.8% | Fbg (9 h): 305.8 mg/dL | Hb (9 h): 13.1 g/dL | Ht (9 h): 40.5% | Lym (9 h): 65.4% | MCH (9 h): 21 pg | MCHC (9 h): 32.4% | MCV (9 h): 64.8 fL | Mono (9 h): 2.6% | Neu (9 h): 30.2% | PT (9 h): 15.6 s | Plat (9 h): 125.8 x10_4/uL | RBC (9 h): 625.2 x10_4/ul | Ret (9 h): 9.1% | WBC (9 h): 70.1 x10_2/uL | KIDNEY_L (9 h): 0.8 g | KIDNEY_R (9 h): 0.8 g | KIDNEY_TOTAL (9 h): 1.7 g | LIVER (9 h): 7.7 g | A/G (9 h): 0.8 | ALP (9 h): 1542.6 IU/L | ALT (9 h): 44.8 IU/L | AST (9 h): 68.6 IU/L | BUN (9 h): 7 mg/dL | CRE (9 h): 0.1 mg/dL | Ca (9 h): 10.8 mg/dL | Cl (9 h): 107 meq/L | DBIL (9 h): 0.01 mg/dL | GLC (9 h): 193.4 mg/dL | IP (9 h): 10.7 mg/dL | K (9 h): 4.1 meq/L | LDH (9 h): 82.4 IU/L | Na (9 h): 143.4 meq/L | PL (9 h): 142 mg/dL | RALB (9 h): 2.5 g/dL | TBIL (9 h): 0.06 mg/dL | TC (9 h): 80.8 mg/dL | TG (9 h): 42.2 mg/dL | TP (9 h): 5.5 g/dL | gamma-GTP (9 h): 1 IU/L | TERMINAL_BW (24 h): 191.9 g | APTT (24 h): 16.6 s | Bas (24 h): 0.2% | Eos (24 h): 1.2% | Fbg (24 h): 277.4 mg/dL | Hb (24 h): 13.6 g/dL | Ht (24 h): 41.4% | Lym (24 h): 80.4% | MCH (24 h): 20.9 pg | MCHC (24 h): 32.8% | MCV (24 h): 63.7 fL | Mono (24 h): 3% | Neu (24 h): 14.6% | PT (24 h): 17 s | Plat (24 h): 123.6 x10_4/uL | RBC (24 h): 649.6 x10_4/ul | Ret (24 h): 8.1% | WBC (24 h): 79.1 x10_2/uL | KIDNEY_L (24 h): 0.9 g | KIDNEY_R (24 h): 0.9 g | KIDNEY_TOTAL (24 h): 1.8 g | LIVER (24 h): 7.6 g | A/G (24 h): 0.8 | ALP (24 h): 1505.6 IU/L | ALT (24 h): 40.4 IU/L | AST (24 h): 63 IU/L | BUN (24 h): 13.8 mg/dL | CRE (24 h): 0.2 mg/dL | Ca (24 h): 10.9 mg/dL | Cl (24 h): 105 meq/L | DBIL (24 h): 0.016 mg/dL | GLC (24 h): 182.6 mg/dL | IP (24 h): 8.7 mg/dL | K (24 h): 4.4 meq/L | LDH (24 h): 58 IU/L | Na (24 h): 142.2 meq/L | PL (24 h): 133 mg/dL | RALB (24 h): 2.5 g/dL | TBIL (24 h): 0.062 mg/dL | TC (24 h): 78.8 mg/dL | TG (24 h): 47.8 mg/dL | TP (24 h): 5.6 g/dL | gamma-GTP (24 h): 1 IU/L
